For data set [1], the system named is osteocalcin. Kind of data set: 28-day mouse side-effect model, serum osteocalcin suppression. The note with it: oral gavage 28 days. The format is in vivo.
For data set [2], the system named is IL-1β. Kind of data set: LPS-induced human whole blood, IL-1β release. Format: cell-based. On the procedure:
Venous blood from human donors was collected as 10 ml aliquots in tubes containing sodium heparin (BD Vacutainer from Becton Dickinson and Company, Franklin Lakes, N.Y.). Blood was added to sterile polystyrene round bottom 96-well tissue culture plates (Corning Costar) at 180 Blood was placed in a humidified 37 C incubator with 5% CO2 while compounds were prepared (nearly 60 minutes).
Compounds were prepared from 10 mM stock solutions in dimethylsulfoxide (DMSO, Sigma-Aldrich). Stock compound was diluted in DMSO to give appropriate starting concentration then diluted serially 1/3 in DMSO (i.e. 15 μl compound+30 μl DMSO), followed by diluting each serial dilution 1/167 into vehicle solution (2% DMSO in phosphate buffered saline (Dulbecco's Phosphate Buffered Saline without calcium chloride without magnesium chloride, Invitrogen Corporation, Carlsbad Calif.)). Compound or vehicle was added to blood in 10 μl aliquots as triplicates, omitting the outside wells to minimize possible edge effects. The final highest concentration of each compound in the assay ranged from 3 to 0.3 μM. Final DMSO concentration in the assay was 0.1%. The plate containing the samples was gently vortexed to mix and replaced in the incubator. LPS stock (E. coli serotype 0111:B4, Sigma-Aldrich), stored in aliquots of 100 μg/ml in RPMI at −20° C., was diluted […] in RPMI to make a working stock solution. After 60 minutes of incubation, 10 μl of the prepared LPS working stock was added to the blood to a final concentration of 100 ng/ml. Wells to be used as negative control received RPMI media with no LPS. The plate was again gently vortexed and the plates incubated overnight for 22 hours. Following incubation, the blood was centrifuged at 1500×g for 5 minutes and the plasma removed to either freeze at −20° C. or assay for cytokine release.
IL-1β, IFNγ and TNFα protein levels were measured using Meso Scale assay kits (Meso Scale Discovery, Gaithersburg, Md., U.S.A.). Reagents were allowed to come to room temperature. Meso Scale plates were blocked with 150 μl of Meso Scale Block B diluent, gently shaking at room temperature for 60 minutes. Plates were washed 3× with wash buffer (PBS, Invitrogen Corporation, with 0.05% Tween-20, Sigma-Aldrich). Calibrators for standard curves were prepared in human plasma/serum assay diluent as a 1/5 serial dilution to achieve final concentrations ranging from 50000 pg/ml to 3.2 pg/ml. Samples were added at 10 to 20 μl/well and calibrators were added at 20 μl/well then incubated at room temperature with gentle shaking for 2 hours. Plates were again washed 3× with wash buffer. Detection antibody was diluted in human plasma/serum antibody diluent to 1 μg/ml and added to the plate at 20 μl/well. Plates were incubated as before for 2 hours and washed again. Read Buffer T (4×) was diluted 1:1 with mqH20 to 2× concentration and 150 μl added to each well. Plates were read on the SECTOR Imager 6000 (Meso Scale Discovery) to generate raw signal values.
Individual sample signal values were compared to positive and negative controls (vehicle treated blood with LPS and vehicle treated blood without LPS, respectively) to generate % inhibition. Triplicate values were averaged for each donor. The values for three or four donors were averaged and graphed using 4-parameter fit curves in the LabStats plug-in for the Microsoft Excel application.

Data set [3] deals with serum insulin. Kind of data set: 28-day mouse side-effect model, serum insulin. The format is in vivo. The note with it: oral gavage 28 days.

In general, ED50 refers to the midpoint of the dose-response relation. For orientation: inhibition means the change of the read-out against control, counted positive when it falls.

Each structure is given as a SMILES string.

`Cc1ncccc1NC(=O)c1ccc2c(c1)C(=O)C[C@@H]1C[C@@](O)(c3ccccc3)[C@](C)(O)C[C@@]21Cc1ccccc1` [Example 1, (4bR,6R,7R,8aS)-4b-benzyl-6,7-dihydroxy-6-methyl-N-(2-methylpyridin-3-yl)-10-oxo-7-phenyl-4b,5,6,7,8,8a,9,10-octahydrophenanthrene-2-carboxamide]: the ED50 at 28 days is 0.081 mg/kg in data set [1] (female, Swiss Webster, read-out: Osteocalcin Suppression (ED50 dose)) and 1.28 mg/kg in data set [3] (female, Swiss Webster, read-out: Insulin (ED50 dose)). Also, the “Osteocalcin Suppression (ED80 dose)” value in data set [1] was 0.35. In addition, the inhibition at 0.000137174 µM in data set [2] (Homo sapiens, 0.137174 nM, mean of donors) was -0.94%. In data set [2] (Homo sapiens, 0.411523 nM, mean of donors), the inhibition at 0.000411523 µM is -1.08%. Further, the inhibition at 0.00123457 µM in data set [2] (Homo sapiens, 1.234568 nM, mean of donors) came out at 1.18%. Besides, in data set [2] (Homo sapiens, 3.703704 nM, mean of donors), the inhibition at 0.0037037 µM turned out to be 5.14%. The inhibition at 0.0111111 µM in data set [2] (Homo sapiens, 11.11111 nM, mean of donors) was 15.4%. Further, the inhibition at 0.0333333 µM in data set [2] (Homo sapiens, 33.33333 nM, mean of donors) came out at 26.4%. The inhibition at 0.1 µM in data set [2] (Homo sapiens, 100 nM, mean of donors) stood at 37.6%. Besides, in data set [2] (Homo sapiens, 300 nM, mean of donors), the inhibition at 0.3 µM was 38%. Also, the “level of inhibition of IL-1” value in data set [2] (ex vivo LPS-stimulated human whole blood, extent of inhibition, concentration not given) is recorded as 38%. For the same molecule, the “Insulin (ED80 dose)” value in data set [3] is reported as 5.89.

The record behind these values is patent publication US8552035B2, “Phenanthrenone compounds, compositions and methods” (Pfizer Inc., priority 2008, dated 2013).
